Laboratory results published in patent US20240091299A1, “TOPICAL COMPOSITIONS FOR ENHANCING A MAN'S SEXUAL RESPONSIVENESS AND PERFORMANCE” (The Hidden Vault LLC, priority 2022, published 2024).

Test system: penis of a person
Assay: topical application of the compositions (massage oil) to a person's penis, twice daily
Type: in vivo, human
Conditions: ingredient as included in the compositions, applied topically to a person's penis as a massage oil

C=C(C)[C@@H]1CCC(C)=C[C@H]1c1c(O)cc(CCCCC)cc1O [CBD, Cannabidiol]
effect on sexual arousal, performance, libido and penis size: enhances sexual arousal and performance and stamina
